From patent publication US6878388B1, “Vanadium compounds for treating proliferative cell disorders” (Parker Hughes Institute, priority 2000, dated 2005)

Assays:
[1] = test system: MDA-MB-231 breast cancer xenografts; experiment: SCID mouse xenograft model of human breast cancer; format: in vivo, SCID mice
Description: FIGS. 1A-1B illustrate the in vivo antitumor activity of the vanadium compound, [VO(SO4)(Me2-Phen)2] against human glioblastoma and breast cancer in SCID mice. The effects of daily treatment with [VO(SO4)(Me2-Phen)2] (10 mg/kg/day) or 5% DMSO in PBS (given five days per week for four weeks beginning the day after inoculation) on tumor growth and progression of glioblastoma (FIG. 1A) and breast cancer (FIG. 1B) are illustrated. Comparisons between groups were done using the log-rank test.
The animal protocols used in this study were approved by the Parker Hughes Institute Institutional Animal Care and Use Committee (IACUC). […]
The right and left hind legs of the SCID mice were inoculated subcutaneously with 1×10^6 U87 human glioblastoma and 1×10^6 MDA-MB-231 beast cancer cells, respectively, in 0.1 mL PBS. […] Mice were monitored daily for health status as well as tumor growth and were sacrificed if they became moribund, developed tumors which impeded their ability to attain food or water, or at the ed of the six-week observation period. Tumors were measured using Vernier calipers three times per week. Tumor volumes were calculated according to the following formula, as described previously (Narla et al., Clin Cancer Res., 4: 1405-14, 1998; Friedman et al., Cancer Res., 55: 2853-2857, 1995): Tumor volume=(Width)^2(Length)/2. […]

[2] = test system: MDA-MB-231 breast cancer cells; experiment: MTT cytotoxicity assay, MDA-MB-231; format: cell-based, human; details: MDA-MB-231 cells, 48 h incubation, 3 independent experiments, read-out: IC50 (mean ± SE)
Description: Human brain tumor cells lines U87 MG (Cat.# HTB-14), U118 MG (Cat. # HTB-15), U138 (Cat # HTB-16), U373 MG (CAT. # HTB-17), and T98G (Cat. # CRL-1690) and breast cancer cell lines BT-20 (Cat # HTB-19), MDA-MB-231 (Cat # HTB-26), MDA-MB-361 (Cat # HTB-27), and MCF-7 (Cat # HTB-22) were obtained from American Type Culture Collection (ATCC, Rockville, Md.) and maintained as continuous cell lines in Dulbecco's modified Eagles's medium (U87, U118, U138, U373, T98 and BT-20) or Leibovitz's L-15 medium (MDA-MB-231 and MDA-MB-361). All media were supplemented with 10% fetal calf serum (FCS), 4 mM glutamine, 100 U/ml penicillin G and […] streptomycin sulfate. All tissue culture reagents were obtained from Life Technologies Inc. (GIBCO-BRL, Gaithersburg, Md.).
The cytotoxicity of [VO(SO4)(Me2-Phen)2] against human cancer cell lines was analyzed using the MTT (3-[4,5-dimethylthiazol-2-yl]-2,5-diphenyl tetrazolium bromide) assay (Boehringer Mannheim Corp., Indianapolis, Ind.) as described previously (Narla et al., Clin Cancer Res., 4: 1405-1414, 1998). […] The absorbance at 540 nm (a reference wavelength of 690 nm was used) of the solution in each well was measured using a microplate reader (Labsystems). The percent survival and the IC50 values were calculated using Graphpad Prism v2.0 (Graphpad Software, Inc., San Diego, Calif.) as described previously (Narla et al., Supra). […]

In the case of `Cc1ccnc2c1ccc1c(C)ccnc12.Cc1ccnc2c1ccc1c(C)ccnc12.O=S(=O)([O-])[O-].[O]=[V+2]` [[VO(SO4)(Me2-Phen)2], bis(4,7-dimethyl-1,10-phenanthroline) sulfatooxovanadium (IV)], the “average size of tumors” value ([1]; MDA-MB-231, 1.5 months after inoculation, 10 mg/kg i.p., vehicle control 641±98.7, P=0.004) is reported as 286.9±41.5 mm^3, the “mice remaining alive and free of detectable tumors for >19 days” value ([1]; follows the MDA-MB-231 sentence, 10 mg/kg/dose i.p., five days per week for four weeks) is reported as 50% and the IC50 [2] is reported as 500 ± 100 nM.
